The record followed here is ChEMBL document CHEMBL1275488, “Extended-spectrum beta-lactamase production is associated with an increase in cell invasion and expression of fimbrial adhesins in Klebsiella pneumoniae” (2008).

A word on the MIC: it is the lowest concentration that inhibits growth of the organism. Higher therefore signals a need for much substance.

Some results are limits rather than exact numbers.

The experiment deals with Klebsiella pneumoniae. Description: Antibacterial activity against extended-spectrum beta-lactamase-producing Klebsiella pneumoniae. Type of experiment: functional.
Take `CO/N=C(\C(=O)N[C@@H]1C(=O)N2C(C(=O)O)=C(COC(C)=O)CS[C@H]12)c1csc(N)n1` [CEFOTAXIME]: the MIC is < 2 µg/mL.

`CC(C)(O/N=C(\C(=O)N[C@@H]1C(=O)N2C(C(=O)[O-])=C(C[n+]3ccccc3)CS[C@H]12)c1csc(N)n1)C(=O)O` [CEFTAZIDIME]: the minimal inhibitory concentration (MIC) is < 2 µg/mL.

Regarding `CO/N=C(\C(=O)N[C@@H]1C(=O)N2C(C(=O)O)=C(CSc3nc(=O)c(O)nn3C)CS[C@H]12)c1csc(N)n1` [CEFTRIAXONE], the MIC was < 2 µg/mL.
